Source: PubChem BioAssay (NCI)
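GI50 is the concentration that inhibits growth by half. At the TGI there is no net growth.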

Experiments:
Assay in all cases: growth of human tumour cells (NCI), 384-well format
NCI-H522 lung = tested on: NCI-H522 lung
NCI-H322M lung = tested on: NCI-H322M lung
COLO 205 colon = tested on: COLO 205 colon
MALME-3M melanoma = tested on: MALME-3M melanoma
NCI-H23 lung = tested on: NCI-H23 lung
MCF7 breast = tested on: MCF7 breast
MDA-MB-468 breast = tested on: MDA-MB-468 breast
SK-MEL-28 melanoma = tested on: SK-MEL-28 melanoma
SR leukemia = tested on: SR leukemia
OVCAR-5 ovarian = tested on: OVCAR-5 ovarian
SK-MEL-5 melanoma = tested on: SK-MEL-5 melanoma
SW-620 colon = tested on: SW-620 colon
SNB-19 CNS = tested on: SNB-19 CNS
SF-268 CNS = tested on: SF-268 CNS
PC-3 prostate = tested on: PC-3 prostate
SF-539 CNS = tested on: SF-539 CNS
SF-295 CNS = tested on: SF-295 CNS
MOLT-4 leukemia = tested on: MOLT-4 leukemia
K-562 leukemia = tested on: K-562 leukemia
RPMI-8226 leukemia = tested on: RPMI-8226 leukemia
OVCAR-3 ovarian = tested on: OVCAR-3 ovarian
HOP-92 NSCLC = tested on: HOP-92 NSCLC
ACHN renal = tested on: ACHN renal
CAKI-1 renal = tested on: CAKI-1 renal
HCT-15 colon = tested on: HCT-15 colon
CCRF-CEM leukemia = tested on: CCRF-CEM leukemia
A549 NSCLC = tested on: A549 NSCLC
SK-OV-3 ovarian = tested on: SK-OV-3 ovarian
786-0 renal = tested on: 786-0 renal
HS 578T breast = tested on: HS 578T breast
M14 melanoma = tested on: M14 melanoma
SNB-75 CNS = tested on: SNB-75 CNS
NCI-H460 NSCLC = tested on: NCI-H460 NSCLC
KM12 colon = tested on: KM12 colon
A498 renal = tested on: A498 renal
UACC-257 melanoma = tested on: UACC-257 melanoma
NCI-H226 lung = tested on: NCI-H226 lung
U251 glioblastoma = tested on: U251 glioblastoma
MDA-MB-231 breast = tested on: MDA-MB-231 breast
DU-145 prostate = tested on: DU-145 prostate
OVCAR-4 ovarian = tested on: OVCAR-4 ovarian
IGROV1 ovarian = tested on: IGROV1 ovarian
HCC-2998 colon = tested on: HCC-2998 colon
EKVX NSCLC = tested on: EKVX NSCLC
SN12C renal = tested on: SN12C renal
MDA-MB-435 melanoma = tested on: MDA-MB-435 melanoma
UO-31 renal = tested on: UO-31 renal
TK-10 renal = tested on: TK-10 renal
BT-549 breast = tested on: BT-549 breast
NCI/ADR-RES ovarian = tested on: NCI/ADR-RES ovarian
HL-60(TB) leukemia = tested on: HL-60(TB) leukemia
UACC-62 melanoma = tested on: UACC-62 melanoma
T-47D breast = tested on: T-47D breast
HT29 colon = tested on: HT29 colon
OVCAR-8 ovarian = tested on: OVCAR-8 ovarian
HOP-62 NSCLC = tested on: HOP-62 NSCLC
LOX IMVI melanoma = tested on: LOX IMVI melanoma
RXF 393 renal = tested on: RXF 393 renal

CN(C)CC(=O)N1CCC(c2ccc(NC(=O)c3ncc(C#N)[nH]3)c(C3=CCCCC3)c2)CC1
GI50 (NCI-H522 lung): 10.6 µM
TGI (NCI-H522 lung): 22.4 µM
GI50 (NCI-H322M lung): 7.63 µM
TGI (NCI-H322M lung): 20.1 µM
GI50 (COLO 205 colon): 3.56 µM
TGI (COLO 205 colon): 11.7 µM
GI50 (MALME-3M melanoma): 1.66 µM
TGI (MALME-3M melanoma): 3.57 µM
GI50 (NCI-H23 lung): 2.93 µM
TGI (NCI-H23 lung): 10.7 µM
GI50 (MCF7 breast): 2.72 µM
TGI (MCF7 breast): 10.7 µM
GI50 (MDA-MB-468 breast): 4.3 µM
TGI (MDA-MB-468 breast): 9.35 µM
GI50 (SK-MEL-28 melanoma): 1.8 µM
TGI (SK-MEL-28 melanoma): 3.28 µM
GI50 (SR leukemia): 2.44 µM
TGI (SR leukemia): 5.54 µM
GI50 (OVCAR-5 ovarian): 4.13 µM
TGI (OVCAR-5 ovarian): 13.8 µM
GI50 (SK-MEL-5 melanoma): 1.7 µM
TGI (SK-MEL-5 melanoma): 4.34 µM
GI50 (SW-620 colon): 10.4 µM
TGI (SW-620 colon): 22.2 µM
GI50 (SNB-19 CNS): 9.85 µM
TGI (SNB-19 CNS): 21.5 µM
GI50 (SF-268 CNS): 6.84 µM
TGI (SF-268 CNS): 19.4 µM
GI50 (PC-3 prostate): 5.35 µM
TGI (PC-3 prostate): 17.3 µM
GI50 (SF-539 CNS): 3.02 µM
TGI (SF-539 CNS): 13 µM
GI50 (SF-295 CNS): 3.47 µM
TGI (SF-295 CNS): 11.3 µM
GI50 (MOLT-4 leukemia): 2.61 µM
TGI (MOLT-4 leukemia): 7.17 µM
GI50 (K-562 leukemia): 2.97 µM
TGI (K-562 leukemia): 11.3 µM
GI50 (RPMI-8226 leukemia): 4.07 µM
TGI (RPMI-8226 leukemia): 15.3 µM
GI50 (OVCAR-3 ovarian): 10.6 µM
TGI (OVCAR-3 ovarian): 22.4 µM
GI50 (HOP-92 NSCLC): 1.43 µM
TGI (HOP-92 NSCLC): 10.8 µM
GI50 (ACHN renal): 7.59 µM
TGI (ACHN renal): 20 µM
GI50 (CAKI-1 renal): 4.11 µM
TGI (CAKI-1 renal): 14.9 µM
GI50 (HCT-15 colon): 1.82 µM
TGI (HCT-15 colon): 3.58 µM
GI50 (CCRF-CEM leukemia): 3.27 µM
TGI (CCRF-CEM leukemia): 10.7 µM
GI50 (A549 NSCLC): 4.25 µM
TGI (A549 NSCLC): 14.8 µM
GI50 (SK-OV-3 ovarian): 3.62 µM
TGI (SK-OV-3 ovarian): 13.3 µM
GI50 ([…]-0 renal): 1.93 µM
TGI (786-0 renal): 4.41 µM
GI50 (HS 578T breast): 2.66 µM
TGI (HS 578T breast): 6.73 µM
GI50 (M14 melanoma): 1.89 µM
TGI (M14 melanoma): 3.71 µM
GI50 (SNB-75 CNS): 4.4 µM
TGI (SNB-75 CNS): 15.6 µM
GI50 (NCI-H460 NSCLC): 5.42 µM
TGI (NCI-H460 NSCLC): 16.8 µM
GI50 (KM12 colon): 0.141 µM
TGI (KM12 colon): 3.52 µM
GI50 (A498 renal): 2.04 µM
TGI (A498 renal): 3.91 µM
GI50 (UACC-257 melanoma): 1.98 µM
TGI (UACC-257 melanoma): 3.52 µM
GI50 (NCI-H226 lung): 3.85 µM
TGI (NCI-H226 lung): 14.2 µM
GI50 (U251 glioblastoma): 5.48 µM
TGI (U251 glioblastoma): 17.6 µM
GI50 (MDA-MB-231 breast): 6.96 µM
TGI (MDA-MB-231 breast): 19.2 µM
GI50 (DU-145 prostate): 10.4 µM
TGI (DU-145 prostate): 22.2 µM
GI50 (OVCAR-4 ovarian): 15.5 µM
TGI (OVCAR-4 ovarian): 28.9 µM
GI50 (IGROV1 ovarian): 10.3 µM
TGI (IGROV1 ovarian): 22 µM
GI50 (HCC-2998 colon): 2.48 µM
TGI (HCC-2998 colon): 5.33 µM
GI50 (EKVX NSCLC): 12.5 µM
TGI (EKVX NSCLC): 25 µM
GI50 (SN12C renal): 1.51 µM
TGI (SN12C renal): 13 µM
GI50 (MDA-MB-435 melanoma): 3 µM
TGI (MDA-MB-435 melanoma): 9.64 µM
GI50 (UO-31 renal): 12.1 µM
TGI (UO-31 renal): 24.7 µM
GI50 (TK-10 renal): 8.66 µM
TGI (TK-10 renal): 20.8 µM
GI50 (BT-549 breast): 2.4 µM
TGI (BT-549 breast): 9.81 µM
GI50 (NCI/ADR-RES ovarian): 15.7 µM
TGI (NCI/ADR-RES ovarian): 29.1 µM
GI50 (HL-60(TB) leukemia): 2.06 µM
TGI (HL-60(TB) leukemia): 4.49 µM
GI50 (UACC-62 melanoma): 1.87 µM
TGI (UACC-62 melanoma): 3.6 µM
GI50 (T-47D breast): 12.1 µM
TGI (T-47D breast): 24.5 µM
GI50 (HT29 colon): 1.71 µM
TGI (HT29 colon): 3.26 µM
GI50 (OVCAR-8 ovarian): 10.6 µM
TGI (OVCAR-8 ovarian): 22.4 µM
GI50 (HOP-62 NSCLC): 4.18 µM
TGI (HOP-62 NSCLC): 14.8 µM
GI50 (LOX IMVI melanoma): 3.32 µM
TGI (LOX IMVI melanoma): 10.6 µM
GI50 (RXF 393 renal): 5.03 µM
TGI (RXF 393 renal): 17.2 µM
